Like-named read-outs stand apart in the source and are kept apart here.
How the values were obtained:
[1] = format: physicochemical; details: stored at room temperature (21-25° C.)
Experimental: At each time period, 0.05 g of powder was dissolved in 10 ml-15 of ethanol, diluted to fall within the analytical range, and injected into the LCMSMS for analysis.

[2] = Stability of cannabinoid and Vitamin E components of Beverage 2 (AB Red) stored at 8° C. and 21-25° C., LCMSMS over 570 days
Experimental: The LCMSMS was calibrated for 0-50 ng/ml cannabinoids with the same resin material used in the preparation of the concentrates. At each time period, 100 μml of beverage was diluted with 10 ml of methanol and injected into the LCMSMS for analysis.

C=C(C)[C@@H]1CCC(C)=C[C@H]1c1c(O)cc(CCCCC)c(C(=O)O)c1O [CBDA, cannabidiolic acid]
Stability in Powder Concentrate (content by LCMSMS) ([1]; day 0): 0.410 mg/g powder | Stability in Powder Concentrate (content by LCMSMS) ([1]; day 1): 0.412 mg/g powder | Stability in Powder Concentrate (content by LCMSMS) ([1]; day 2): 0.407 mg/g powder | Stability in Powder Concentrate (content by LCMSMS) ([1]; day 3): 0.406 mg/g powder | Stability in Powder Concentrate (content by LCMSMS) ([1]; day 5): 0.414 mg/g powder | Stability in Powder Concentrate (content by LCMSMS) ([1]; day 8): 0.415 mg/g powder | Stability in Powder Concentrate (content by LCMSMS) ([1]; day 9): 0.410 mg/g powder | Stability in Powder Concentrate (content by LCMSMS) ([1]; day 10): 0.418 mg/g powder | Stability in Powder Concentrate (content by LCMSMS) ([1]; day 11): 0.415 mg/g powder | Stability in Powder Concentrate (content by LCMSMS) ([1]; day 12): 0.396 mg/g powder | Stability in Powder Concentrate (content by LCMSMS) ([1]; day 15): 0.399 mg/g powder | Stability in Powder Concentrate (content by LCMSMS) ([1]; day 16): 0.427 mg/g powder | Stability in Powder Concentrate (content by LCMSMS) ([1]; day 17): 0.421 mg/g powder | Stability in Powder Concentrate (content by LCMSMS) ([1]; day 18): 0.418 mg/g powder | Stability in Powder Concentrate (content by LCMSMS) ([1]; day 19): 0.414 mg/g powder | Stability in Powder Concentrate (content by LCMSMS) ([1]; day 22): 0.419 mg/g powder | Stability in Powder Concentrate (content by LCMSMS) ([1]; day 23): 0.396 mg/g powder | Stability in Powder Concentrate (content by LCMSMS) ([1]; day 24): 0.403 mg/g powder | Stability in Powder Concentrate (content by LCMSMS) ([1]; day 25): 0.401 mg/g powder | Stability in Powder Concentrate (content by LCMSMS) ([1]; day 26): 0.397 mg/g powder | Stability in Powder Concentrate (content by LCMSMS) ([1]; day 29): 0.426 mg/g powder | Stability in Powder Concentrate (content by LCMSMS) ([1]; day 30): 0.405 mg/g powder | Stability in Powder Concentrate (content by LCMSMS) ([1]; day 60): 0.418 mg/g powder | Stability in Powder Concentrate (content by LCMSMS) ([1]; day 90): 0.413 mg/g powder | Stability in Powder Concentrate (content by LCMSMS) ([1]; day 120): 0.403 mg/g powder | Stability in Powder Concentrate (content by LCMSMS) ([1]; day 150): 0.412 mg/g powder | Stability in Powder Concentrate (content by LCMSMS) ([1]; day 180): 0.422 mg/g powder | Stability in Powder Concentrate (content by LCMSMS) ([1]; day 210): 0.427 mg/g powder | Stability in Powder Concentrate (content by LCMSMS) ([1]; day 240): 0.417 mg/g powder | Stability in Powder Concentrate (content by LCMSMS) ([1]; day 270): 0.424 mg/g powder | Stability in Powder Concentrate (content by LCMSMS) ([1]; day 300): 0.409 mg/g powder | Stability in Powder Concentrate (content by LCMSMS) ([1]; day 330): 0.424 mg/g powder | Stability in Powder Concentrate (content by LCMSMS) ([1]; day 360): 0.413 mg/g powder | Stability in Powder Concentrate (content by LCMSMS) ([1]; day 390): 0.407 mg/g powder | Stability in Powder Concentrate (content by LCMSMS) ([1]; day 420): 0.420 mg/g powder | Stability in Powder Concentrate (content by LCMSMS) ([1]; day 450): 0.398 mg/g powder | Stability in Powder Concentrate (content by LCMSMS) ([1]; day 480): 0.418 mg/g powder | Stability in Powder Concentrate (content by LCMSMS) ([1]; day 510): 0.411 mg/g powder | Stability in Powder Concentrate (content by LCMSMS) ([1]; day 540): 0.425 mg/g powder | Stability in Powder Concentrate (content by LCMSMS) ([1]; day 570): 0.408 mg/g powder | Stability of Cannabinoids in AB Red ([2]; 8° C., 0 days): 1.68 µg/mL | Stability of Cannabinoids in AB Red ([2]; 8° C., 1 days): 1.69 µg/mL | Stability of Cannabinoids in AB Red ([2]; 8° C., 2 days): 1.66 µg/mL | Stability of Cannabinoids in AB Red ([2]; 8° C., 3 days): 1.64 µg/mL | Stability of Cannabinoids in AB Red ([2]; 8° C., 5 days): 1.67 µg/mL | Stability of Cannabinoids in AB Red ([2]; 8° C., 8 days): 1.68 µg/mL | Stability of Cannabinoids in AB Red ([2]; 8° C., 9 days): 1.65 µg/mL | Stability of Cannabinoids in AB Red ([2]; 8° C., 10 days): 1.67 µg/mL | Stability of Cannabinoids in AB Red ([2]; 8° C., 11 days): 1.65 µg/mL | Stability of Cannabinoids in AB Red ([2]; 8° C., 12 days): 1.68 µg/mL | Stability of Cannabinoids in AB Red ([2]; 8° C., 15 days): 1.67 µg/mL | Stability of Cannabinoids in AB Red ([2]; 8° C., 16 days): 1.69 µg/mL | Stability of Cannabinoids in AB Red ([2]; 8° C., 17 days): 1.64 µg/mL | Stability of Cannabinoids in AB Red ([2]; 8° C., 18 days): 1.65 µg/mL | Stability of Cannabinoids in AB Red ([2]; 8° C., 19 days): 1.68 µg/mL | Stability of Cannabinoids in AB Red ([2]; 8° C., 22 days): 1.70 µg/mL | Stability of Cannabinoids in AB Red ([2]; 8° C., 23 days): 1.63 µg/mL | Stability of Cannabinoids in AB Red ([2]; 8° C., 24 days): 1.70 µg/mL | Stability of Cannabinoids in AB Red ([2]; 8° C., 25 days): 1.63 µg/mL | Stability of Cannabinoids in AB Red ([2]; 8° C., 26 days): 1.63 µg/mL | Stability of Cannabinoids in AB Red ([2]; 8° C., 29 days): 1.66 µg/mL | Stability of Cannabinoids in AB Red ([2]; 8° C., 30 days): 1.70 µg/mL | Stability of Cannabinoids in AB Red ([2]; 8° C., 60 days): 1.66 µg/mL | Stability of Cannabinoids in AB Red ([2]; 8° C., 90 days): 1.68 µg/mL | Stability of Cannabinoids in AB Red ([2]; 8° C., 120 days): 1.65 µg/mL | Stability of Cannabinoids in AB Red ([2]; 8° C., 150 days): 1.66 µg/mL | Stability of Cannabinoids in AB Red ([2]; 8° C., 180 days): 1.60 µg/mL | Stability of Cannabinoids in AB Red ([2]; 8° C., 210 days): 1.65 µg/mL | Stability of Cannabinoids in AB Red ([2]; 8° C., 240 days): 1.66 µg/mL | Stability of Cannabinoids in AB Red ([2]; 8° C., 270 days): 1.63 µg/mL | Stability of Cannabinoids in AB Red ([2]; 8° C., 300 days): 1.65 µg/mL | Stability of Cannabinoids in AB Red ([2]; 8° C., 330 days): 1.60 µg/mL | Stability of Cannabinoids in AB Red ([2]; 8° C., 390 days): 1.63 µg/mL | Stability of Cannabinoids in AB Red ([2]; 8° C., 420 days): 1.63 µg/mL | Stability of Cannabinoids in AB Red ([2]; 8° C., 450 days): 1.63 µg/mL | Stability of Cannabinoids in AB Red ([2]; 8° C., 480 days): 1.60 µg/mL | Stability of Cannabinoids in AB Red ([2]; 8° C., 510 days): 1.55 µg/mL | Stability of Cannabinoids in AB Red ([2]; 8° C., 540 days): 1.55 µg/mL | Stability of Cannabinoids in AB Red ([2]; 8° C., 570 days): 1.54 µg/mL | Stability of Cannabinoids in AB Red ([2]; 21-25° C., 0 days): 1.68 µg/mL | Stability of Cannabinoids in AB Red ([2]; 21-25° C., 1 days): 1.70 µg/mL | Stability of Cannabinoids in AB Red ([2]; 21-25° C., 2 days): 1.65 µg/mL | Stability of Cannabinoids in AB Red ([2]; 21-25° C., 3 days): 1.64 µg/mL | Stability of Cannabinoids in AB Red ([2]; 21-25° C., 5 days): 1.69 µg/mL | Stability of Cannabinoids in AB Red ([2]; 21-25° C., 8 days): 1.64 µg/mL | Stability of Cannabinoids in AB Red ([2]; 21-25° C., 9 days): 1.63 µg/mL | Stability of Cannabinoids in AB Red ([2]; 21-25° C., 10 days): 1.61 µg/mL | Stability of Cannabinoids in AB Red ([2]; 21-25° C., 11 days): 1.64 µg/mL | Stability of Cannabinoids in AB Red ([2]; 21-25° C., 12 days): 1.70 µg/mL | Stability of Cannabinoids in AB Red ([2]; 21-25° C., 15 days): 1.64 µg/mL | Stability of Cannabinoids in AB Red ([2]; 21-25° C., 16 days): 1.67 µg/mL | Stability of Cannabinoids in AB Red ([2]; 21-25° C., 17 days): 1.63 µg/mL | Stability of Cannabinoids in AB Red ([2]; 21-25° C., 18 days): 1.65 µg/mL | Stability of Cannabinoids in AB Red ([2]; 21-25° C., 19 days): 1.70 µg/mL | Stability of Cannabinoids in AB Red ([2]; 21-25° C., 22 days): 1.66 µg/mL | Stability of Cannabinoids in AB Red ([2]; 21-25° C., 23 days): 1.63 µg/mL | Stability of Cannabinoids in AB Red ([2]; 21-25° C., 24 days): 1.65 µg/mL | Stability of Cannabinoids in AB Red ([2]; 21-25° C., 25 days): 1.64 µg/mL | Stability of Cannabinoids in AB Red ([2]; 21-25° C., 26 days): 1.67 µg/mL | Stability of Cannabinoids in AB Red ([2]; 21-25° C., 29 days): 1.62 µg/mL | Stability of Cannabinoids in AB Red ([2]; 21-25° C., 30 days): 1.68 µg/mL | Stability of Cannabinoids in AB Red ([2]; 21-25° C., 60 days): 1.59 µg/mL | Stability of Cannabinoids in AB Red ([2]; 21-25° C., 90 days): 1.60 µg/mL | Stability of Cannabinoids in AB Red ([2]; 21-25° C., 120 days): 1.64 µg/mL | Stability of Cannabinoids in AB Red ([2]; 21-25° C., 150 days): 1.58 µg/mL | Stability of Cannabinoids in AB Red ([2]; 21-25° C., 180 days): 1.64 µg/mL | Stability of Cannabinoids in AB Red ([2]; 21-25° C., 210 days): 1.64 µg/mL | Stability of Cannabinoids in AB Red ([2]; 21-25° C., 240 days): 1.60 µg/mL | Stability of Cannabinoids in AB Red ([2]; 21-25° C., 270 days): 1.65 µg/mL | Stability of Cannabinoids in AB Red ([2]; 21-25° C., 300 days): 1.58 µg/mL | Stability of Cannabinoids in AB Red ([2]; 21-25° C., 330 days): 1.65 µg/mL | Stability of Cannabinoids in AB Red ([2]; 21-25° C., 390 days): 1.61 µg/mL | Stability of Cannabinoids in AB Red ([2]; 21-25° C., 420 days): 1.59 µg/mL | Stability of Cannabinoids in AB Red ([2]; 21-25° C., 450 days): 1.57 µg/mL | Stability of Cannabinoids in AB Red ([2]; 21-25° C., 480 days): 1.57 µg/mL | Stability of Cannabinoids in AB Red ([2]; 21-25° C., 510 days): 1.56 µg/mL | Stability of Cannabinoids in AB Red ([2]; 21-25° C., 540 days): 1.57 µg/mL | Stability of Cannabinoids in AB Red ([2]; 21-25° C., 570 days): 1.54 µg/mL
